According to patent publication US20250194649A1, “FATTY ACID AMIDES AND THEIR USE AS FLAVOR MODIFIERS” (Firmenich SA, priority 2022, published 2025):

Tests used:
Format in all cases: in vivo
[1] = Sensory panel (8 experts): sample added to reference water solution containing 4% sucrose; settings: dosage 0.2 ppm; scale −5 (strong masking) to 5 (strong enhancing), 0 = reference 4% sucrose in water
Source text: (§1) A panel consisting of 8 experts evaluating the samples adding in reference at 0.2 or 5 ppm for their sensory properties (sweet, licorice, sweet lingering) on a scale of −5 to 5 (−5 denoted strong masking effect and 5 denoted strong enhancing effect, 0 being the intensity of a reference water solution containing 4% sucrose, or 0.02% SG95. The results are shown in Table 2.

[2] = Sensory panel (8 experts): sample added to reference water solution containing 0.02% SG95 (stevia extract); settings: dosage 0.2 ppm; scale −5 to 5, 0 = reference 0.02% SG95 in water
Source text: as §1

[3] = Sensory panel (8 experts): sweet intensity of sub-threshold sweetener solutions with and without R1 at 50 ppm; settings: for Sweet intensity of the compound solution: without R1
Source text: A panel consisting of 8 experts evaluating R1 adding in various sweeteners at 50 ppm for their sweet properties (0 denoted no sweet taste, 10 denoted too strong sweet taste). The sweetener dosage were designed under their sweetness threshold in water.

[4] = compound 10 ppm in water, scale 0 (no sweet taste) to 10 (too strong sweet taste)
[5] = compound 10 ppm plus R1 (Sichuan pepper oil) 50 ppm, scale 0 to 10
[6] = compound 2.5 ppm in water, scale 0 to 10
[7] = compound 2.5 ppm plus R1 (Sichuan pepper oil) 50 ppm, scale 0 to 10

C/C=C/C=C/C=C\CC/C=C/C(=O)NCC(C)(C)O [Compound S1, Hydroxy-α-sanshool]
ΔSweet intensity to sucrose solution [1]: +0.3 | ΔLicorice intensity to stevia extract solution [2]: +0.3 | ΔLingering intensity to stevia extract solution [2]: −0.8 | ΔSweet intensity tostevia extract solution [2]: +0.1

C/C=C/C=C/C=C/CC/C=C/C(=O)NCC(C)(C)O [Compound S3, Hydroxy-β-sanshool]
ΔSweet intensity to sucrose solution [1]: +0.5 | ΔLicorice intensity to stevia extract solution [2]: 0 | ΔLingering intensity to stevia extract solution [2]: −0.4 | ΔSweet intensity tostevia extract solution [2]: +0.2

O=C1C[C@@H](c2ccc(O)c(O)c2)Oc2cc(O)cc(O)c21 [Eriodictyol, eriodictyol]
Sweet intensity of the compound solution [3, 4]: 0.03 | Sweet intensity of the compound and R1 blend solution [3, 5]: 1.7

COc1cc([C@@H]2CC(=O)c3c(O)cc(O)cc3O2)ccc1O [Homoeriodictyol, homoeriodictyol]
Sweet intensity of the compound solution [3, 4]: 0 | Sweet intensity of the compound and R1 blend solution [3, 5]: 1.7

C[C@H](CC[C@@H](O[C@@H]1O[C@H](CO[C@@H]2O[C@H](CO)[C@@H](O)[C@H](O)[C@H]2O)[C@@H](O)[C@H](O)[C@H]1O[C@@H]1O[C@H](CO)[C@@H](O)[C@H](O)[C@H]1O)C(C)(C)O)[C@H]1CC[C@@]2(C)[C@@H]3CC=C4[C@@H](CC[C@H](O[C@@H]5O[C@H](CO[C@@H]6O[C@H](CO)[C@@H](O)[C@H](O)[C@H]6O)[C@@H](O)[C@H](O)[C@H]5O)C4(C)C)[C@]3(C)[C@H](O)C[C@]12C [Mogroside V, mogroside V]
Sweet intensity of the compound solution [3, 6]: 0.08 | Sweet intensity of the compound and R1 blend solution [3, 7]: 1.6

COc1ccc(CCC(=O)c2c(O)cc(O[C@@H]3O[C@H](CO)[C@@H](O)[C@H](O)[C@H]3O[C@@H]3O[C@@H](C)[C@H](O)[C@@H](O)[C@H]3O)cc2O)cc1O [NHDC, neohesperidin dihydrochalcone]
Sweet intensity of the compound solution ([3]; compound 0.5 ppm in water, scale 0 to 10): 0.06 | Sweet intensity of the compound and R1 blend solution ([3]; compound 0.5 ppm plus R1 (Sichuan pepper oil) 50 ppm, scale 0 to 10): 1.1

O=C1C[C@@H](c2ccc(O)cc2)Oc2cc(O)cc(O)c21 [Naringenin, naringenin]
Sweet intensity of the compound solution [3, 4]: 0.13 | Sweet intensity of the compound and R1 blend solution [3, 5]: 1.3

C=C1C[C@@]23CC[C@H]4[C@@](C)(CCC[C@@]4(C)C(=O)O[C@@H]4O[C@H](CO)[C@@H](O)[C@H](O)[C@H]4O[C@@H]4O[C@H](CO)[C@@H](O)[C@H](O)[C@H]4O)[C@@H]2CC[C@]1(O[C@@H]1O[C@H](CO)[C@@H](O)[C@H](O)[C@H]1O[C@@H]1O[C@H](CO)[C@@H](O)[C@H](O)[C@H]1O)C3 [Reb E, Rebaudioside E]
Sweet intensity of the compound solution [3, 6]: 0.06 | Sweet intensity of the compound and R1 blend solution [3, 7]: 1.5

C=C1C[C@@]23CC[C@H]4[C@@](C)(CCC[C@@]4(C)C(=O)O[C@@H]4O[C@H](CO)[C@@H](O)[C@H](O)[C@H]4O)[C@@H]2CC[C@]1(O[C@@H]1O[C@H](CO)[C@@H](O)[C@H](O[C@@H]2O[C@H](CO)[C@@H](O)[C@H](O)[C@H]2O)[C@H]1O[C@@H]1O[C@H](CO)[C@@H](O)[C@H](O)[C@H]1O)C3 [RebA, Rebaudioside A]
Sweet intensity of the compound solution [3, 6]: 0.19 | Sweet intensity of the compound and R1 blend solution [3, 7]: 1.9

C=C1C[C@@]23CC[C@H]4[C@@](C)(CCC[C@@]4(C)C(=O)O[C@@H]4O[C@H](CO)[C@@H](O)[C@H](O)[C@H]4O)[C@@H]2CC[C@]1(O[C@@H]1O[C@H](CO)[C@@H](O)[C@H](O)[C@H]1O)C3 [Rubusoside, rubusoside]
Sweet intensity of the compound solution ([3]; compound 5 ppm in water, scale 0 to 10): 0 | Sweet intensity of the compound and R1 blend solution ([3]; compound 5 ppm plus R1 (Sichuan pepper oil) 50 ppm, scale 0 to 10): 1.6

O=C(CCc1ccc(O)cc1)c1c(O)cc(O[C@@H]2O[C@H](CO)[C@@H](O)[C@H](O)[C@H]2O)cc1O [Trilobatin, trilobatin]
Sweet intensity of the compound solution [3, 4]: 0 | Sweet intensity of the compound and R1 blend solution [3, 5]: 1.5

COc1ccc(CCC(=O)c2c(O)cc(O[C@@H]3O[C@H](CO)[C@@H](O)[C@H](O)[C@H]3O)cc2O)cc1O [hesperetin dihydrochalcone 4′-O-glucoside]
Sweet intensity of the compound solution [3, 6]: 0.04 | Sweet intensity of the compound and R1 blend solution [3, 7]: 1.9

hesperidin dihydrochalcone
Sweet intensity of the compound solution [3, 4]: 0.09 | Sweet intensity of the compound and R1 blend solution [3, 5]: 1.3

hydroxy-γ-sanshool [Compound S2]
ΔSweet intensity to sucrose solution [1]: +0.7 | ΔLicorice intensity to stevia extract solution [2]: −0.5 | ΔLingering intensity to stevia extract solution [2]: −0.8 | ΔSweet intensity tostevia extract solution [2]: +0.3

malonyl rebaudioside A [Malonyl Reb A]
Sweet intensity of the compound solution [3, 6]: 0 | Sweet intensity of the compound and R1 blend solution [3, 7]: 1.3

malonyl rebaudioside E [Malonyl Reb E]
Sweet intensity of the compound solution [3, 6]: 0.13 | Sweet intensity of the compound and R1 blend solution [3, 7]: 1.5

α-mogroside IV
Sweet intensity of the compound solution [3, 6]: 0.13 | Sweet intensity of the compound and R1 blend solution [3, 7]: 1.8
